Test system: MV-4-11 cells
Assay: Gene expression microarray analysis (Affymetrix PrimeView) and GSEA
Type: cell-based, human
Design: RFU PODN (11730768_x_at) / Fold change /veh PODN (11730768_x_at) / RFU LINC00158 (11744669_a_at) / Fold change /veh LINC00158 (11744669_a_at) / RFU DUSP10 (11751237_a_at) / Fold change /veh DUSP10 (11751237_a_at) / RFU ID3 (11757404_x_at) / Fold change /veh ID3 (11757404_x_at) / RFU PLEKHG5 (11737974_s_at) / Fold change /veh PLEKHG5 (11737974_s_at) / RFU LRRC4B (11730491_at) / Fold change /veh LRRC4B (11730491_at) / RFU GIMAP4 (11747438_a_at) / Fold change /veh GIMAP4 (11747438_a_at) / RFU KRT8 (11758183_x_at) / Fold change /veh KRT8 (11758183_x_at) / RFU CNN1 (11734310_a_at) / Fold change /veh CNN1 (11734310_a_at) / RFU VPS37D (11726825_at) / Fold change /veh VPS37D (11726825_at) / RFU C10orf10 (11716522_x_at) / Fold change /veh C10orf10 (11716522_x_at) / RFU KIR2DL2 /// KIR2DL4 /// KIR2DL5A /// KIR2DL5B /// KIR2DS1 /// KIR2DS2 /// KIR2DS3 /// KIR2DS4 /// KIR3DL3 /// KIR3DL3 /// KIR3DS1 (11738374_at) / Fold change /veh KIR2DL2 /// KIR2DL4 /// KIR2DL5A /// KIR2DL5B /// KIR2DS1 /// KIR2DS2 /// KIR2DS3 /// KIR2DS4 /// KIR3DL3 /// KIR3DL3 /// KIR3DS1 (11738374_at) / RFU C1QL1 (11718748_at) / Fold change /veh C1QL1 (11718748_at) / RFU TMPRSS4 (11747572_a_at) / Fold change /veh TMPRSS4 (11747572_a_at) / RFU HAMP (11756126_x_at) / Fold change /veh HAMP (11756126_x_at) / RFU RNFT2 (11725882_a_at) / Fold change /veh RNFT2 (11725882_a_at) / RFU NR4A2 (11747474_a_at) / Fold change /veh NR4A2 (11747474_a_at) / RFU ABCC12 (11746883_a_at) / Fold change /veh ABCC12 (11746883_a_at) / RFU TMEM136 (11760407_x_at) / Fold change /veh TMEM136 (11760407_x_at) / RFU CLDN22 /// WWC2 (11732394_at) / Fold change /veh CLDN22 /// WWC2 (11732394_at) / RFU HLA-DPB1 (11760878_x_at) / Fold change /veh HLA-DPB1 (11760878_x_at) / RFU SPINT1 (11716480_a_at) / Fold change /veh SPINT1 (11716480_a_at) / RFU GAP43 (11754022_s_at) / Fold change /veh GAP43 (11754022_s_at) / RFU A4GNT (11735810_at) / Fold change /veh A4GNT (11735810_at) / RFU PRB3 (11715151_x_at) / Fold change /veh PRB3 (11715151_x_at) / RFU TUBB4B (11761932_at) / Fold change /veh TUBB4B (11761932_at) / RFU CAPN14 (11732068_a_at) / Fold change /veh CAPN14 (11732068_a_at) / RFU TMCC2 (11721928_a_at) / Fold change /veh TMCC2 (11721928_a_at) / RFU IRGQ (11745062_a_at) / Fold change /veh IRGQ (11745062_a_at) / RFU FAM174B (11720279_a_at) / Fold change /veh FAM174B (11720279_a_at) / RFU TMPRSS4 (11748680_a_at) / Fold change /veh TMPRSS4 (11748680_a_at) / RFU FAM212B (11763350_a_at) / Fold change /veh FAM212B (11763350_a_at) / RFU PLEKHG5 (11743358_a_at) / Fold change /veh PLEKHG5 (11743358_a_at) / RFU ZSCAN30 (11745921_a_at) / Fold change /veh ZSCAN30 (11745921_a_at) / RFU CMKLR1 (11741424_a_at) / Fold change /veh CMKLR1 (11741424_a_at) / RFU LOC101060620 /// MAPK8IP1 (11723275_at) / Fold change /veh LOC101060620 /// MAPK8IP1 (11723275_at) / RFU SPTSSB (11747773_x_at) / Fold change /veh SPTSSB (11747773_x_at) / RFU PRSS12 (11739890_at) / Fold change /veh PRSS12 (11739890_at) / RFU BIN1 (11741810_x_at) / Fold change /veh BIN1 (11741810_x_at) / RFU WNT11 (11732464_a_at) / Fold change /veh WNT11 (11732464_a_at) / RFU C10orf10 (11716521_a_at) / Fold change /veh C10orf10 (11716521_a_at) / RFU C5orf56 (11738089_at) / Fold change /veh C5orf56 (11738089_at) / RFU CYB561 (11721691_x_at) / Fold change /veh CYB561 (11721691_x_at) / RFU ANKRD19P (11752326_a_at) / Fold change /veh ANKRD19P (11752326_a_at) / RFU OR2T12 /// OR2T33 /// OR2T8 (11738714_s_at) / Fold change /veh OR2T12 /// OR2T33 /// OR2T8 (11738714_s_at) / RFU VCAN (11748164_a_at) / Fold change /veh VCAN (11748164_a_at) / RFU JSRP1 (11732532_at) / Fold change /veh JSRP1 (11732532_at) / RFU KRTAP10-11 (11738290_x_at) / Fold change /veh KRTAP10-11 (11738290_x_at) / RFU MYO3A (11730013_a_at) / Fold change /veh MYO3A (11730013_a_at) / RFU EBF3 (11725865_a_at) / Fold change /veh EBF3 (11725865_a_at) / RFU CAMK2N1 (11719241_x_at) / Fold change /veh CAMK2N1 (11719241_x_at) / RFU C5orf56 (11738088_a_at) / Fold change /veh C5orf56 (11738088_a_at) / RFU OLFML3 (11715873_a_at) / Fold change /veh OLFML3 (11715873_a_at) / RFU LOC100653217 /// NTM (11731650_a_at) / Fold change /veh LOC100653217 /// NTM (11731650_a_at) / RFU MAPK11 (11762145_a_at) / Fold change /veh MAPK11 (11762145_a_at) / RFU FIZ1 (11724087_x_at) / Fold change /veh FIZ1 (11724087_x_at) / RFU OASL (11726364_x_at) / Fold change /veh OASL (11726364_x_at) / RFU SOX15 (11748057_x_at) / Fold change /veh SOX15 (11748057_x_at) / RFU CD79A (11719716_a_at) / Fold change /veh CD79A (11719716_a_at) / RFU HIST1H1D (11736915_at) / Fold change /veh HIST1H1D (11736915_at) / RFU CASKIN2 (11723855_a_at) / Fold change /veh CASKIN2 (11723855_a_at) / RFU LOC730098 (11760151_x_at) / Fold change /veh LOC730098 (11760151_x_at) / RFU OR4N2 (11742367_at) / Fold change /veh OR4N2 (11742367_at) / RFU PRRT2 (11749266_a_at) / Fold change /veh PRRT2 (11749266_a_at) / RFU SNX32 (11753110_a_at) / Fold change /veh SNX32 (11753110_a_at) / RFU CDHR5 (11726645_a_at) / Fold change /veh CDHR5 (11726645_a_at) / RFU RCAN1 (11760418_a_at) / Fold change /veh RCAN1 (11760418_a_at) / RFU FAM167A (11723789_a_at) / Fold change /veh FAM167A (11723789_a_at) / RFU FAM26E (11764081_at) / Fold change /veh FAM26E (11764081_at) / RFU ISYNA1 (11749810_s_at) / Fold change /veh ISYNA1 (11749810_s_at) / RFU ACY1 (11761880_at) / Fold change /veh ACY1 (11761880_at) / RFU 11764098_at / Fold change /veh 11764098_at / RFU SAMD14 (11745864_x_at) / Fold change /veh SAMD14 (11745864_x_at) / RFU NPB (11741838_a_at) / Fold change /veh NPB (11741838_a_at) / RFU TMPRSS6 (11731388_a_at) / Fold change /veh TMPRSS6 (11731388_a_at) / RFU KRTAP10-2 (11738614_at) / Fold change /veh KRTAP10-2 (11738614_at) / RFU ARHGAP8 /// PRR5-ARHGAP8 (11727945_x_at) / Fold change /veh ARHGAP8 /// PRR5-ARHGAP8 (11727945_x_at) / RFU KRTAP5-7 /// NADSYN1 (11734609_at) / Fold change /veh KRTAP5-7 /// NADSYN1 (11734609_at) / RFU RASL12 (11751679_a_at) / Fold change /veh RASL12 (11751679_a_at) / RFU CDKN2B (11736163_a_at) / Fold change /veh CDKN2B (11736163_a_at) / RFU PRF1 (11729649_at) / Fold change /veh PRF1 (11729649_at) / RFU, ZNF638 /// ZNF638-IT1 / Fold change vs veh, ZNF638 /// ZNF638-IT1 / RFU, PANK3 / Fold change vs veh, PANK3 / RFU, SH3YL1 / Fold change vs veh, SH3YL1 / RFU, ZEB2 / Fold change vs veh, ZEB2 / RFU, NRIP1 / Fold change vs veh, NRIP1 / RFU, PTTG1IP / Fold change vs veh, PTTG1IP / RFU, CAPN2 / Fold change vs veh, CAPN2 / RFU, MED14 / Fold change vs veh, MED14 / RFU, SNORA58 / Fold change vs veh, SNORA58 / RFU, C1orf63 / Fold change vs veh, C1orf63 / RFU, LRRFIP1 / Fold change vs veh, LRRFIP1 / RFU, NDUFAF7 / Fold change vs veh, NDUFAF7 / RFU, SLC12A2 / Fold change vs veh, SLC12A2 / RFU, IBTK / Fold change vs veh, IBTK / RFU, ESF1 / Fold change vs veh, ESF1 / Fold change vs veh, TMEM50B / RFU, TAOK1 / Fold change vs veh, TAOK1 / RFU, ACBD3 / Fold change vs veh, ACBD3 / RFU, TMA16 / Fold change vs veh, TMA16 / RFU, RWDD3 / Fold change vs veh, RWDD3 / RFU, BCAT1 / Fold change vs veh, BCAT1 / RFU, EDEM3 / Fold change vs veh, EDEM3 / RFU, TMEM33 / Fold change vs veh, TMEM33 / RFU, WDR75 / Fold change vs veh, WDR75 / RFU, AHCTF1 / Fold change vs veh, AHCTF1 / RFU, TFRC / Fold change vs veh, TFRC / RFU, ZDHHC17 / Fold change vs veh, ZDHHC17 / RFU, NOM1 / Fold change vs veh, NOM1 / RFU, ARL8B / Fold change vs veh, ARL8B / RFU, ZBTB11 / Fold change vs veh, ZBTB11 / RFU, TAMM41 / Fold change vs veh, TAMM41 / RFU, KIAA1704 /// LOC100996395 / Fold change vs veh, KIAA1704 /// LOC100996395 / RFU, ING1 / Fold change vs veh, ING1 / RFU, TRMT61B / Fold change vs veh, TRMT61B / RFU, FUBP3 / Fold change vs veh, FUBP3 / RFU, TP53 / Fold change vs veh, TP53 / RFU, TNKS2 / Fold change vs veh, TNKS2 / RFU, ZFP14 / Fold change vs veh, ZFP14 / RFU, ACTR2 / Fold change vs veh, ACTR2 / RFU, PPP3R1 / Fold change vs veh, PPP3R1 / RFU, PIK3R1 / Fold change vs veh, PIK3R1 / RFU, HNRNPA1 / Fold change vs veh, HNRNPA1 / RFU, RNF170 / Fold change vs veh, RNF170 / RFU, ZNF28 / Fold change vs veh, ZNF28 / RFU, RNGTT / Fold change vs veh, RNGTT / RFU, OGT / Fold change vs veh, OGT / RFU, BRD1 / Fold change vs veh, BRD1 / RFU, MARS / Fold change vs veh, MARS / RFU, ZNF655 / Fold change vs veh, ZNF655 / RFU, FAHD1 / Fold change vs veh, FAHD1 / RFU, BDP1 / Fold change vs veh, BDP1 / RFU, LRRCC1 / Fold change vs veh, LRRCC1 / RFU, ARID1A / Fold change vs veh, ARID1A / RFU, ZNF146 / Fold change vs veh, ZNF146 / RFU, ZNF330 / Fold change vs veh, ZNF330 / RFU, GPN3 / Fold change vs veh, GPN3 / RFU, C9orf123 / Fold change vs veh, C9orf123 / RFU, N4BP2L2 / Fold change vs veh, N4BP2L2 / RFU, ARFIP1 / Fold change vs veh, ARFIP1 / RFU, FAM179B / Fold change vs veh, FAM179B / RFU, BCL10 / Fold change vs veh, BCL10 / RFU, UHRF1BP1L / Fold change vs veh, UHRF1BP1L / RFU, BET1 / Fold change vs veh, BET1 / RFU, CNOT2 / Fold change vs veh, CNOT2 / RFU, ZNF268 / Fold change vs veh, ZNF268 / Fold change vs veh, ZNF507 / RFU, DGCR2 / Fold change vs veh, DGCR2 / RFU, WDSUB1 / Fold change vs veh, WDSUB1 / Fold change vs veh, HSP90B1 /// MIR3652 / RFU, ADSS / Fold change vs veh, ADSS / RFU, GK / Fold change vs veh, GK / RFU, ZNF148 / Fold change vs veh, ZNF148 / RFU, TAF9 / Fold change vs veh, TAF9 / RFU, SLC1A5 / Fold change vs veh, SLC1A5 / RFU, SLMO2 / Fold change vs veh, SLMO2 / RFU, ABCC4 / Fold change vs veh, ABCC4 / RFU, LOC101060439 /// RAP1B / Fold change vs veh, LOC101060439 /// RAP1B / RFU, RFX7 / Fold change vs veh, RFX7 / RFU, GTPBP10 / Fold change vs veh, GTPBP10 / RFU, CNEP1R1 / Fold change vs veh, CNEP1R1 / RFU, BIVM-ERCC5 /// ERCC5 / Fold change vs veh, BIVM-ERCC5 /// ERCC5 / RFU, ILF3 / Fold change vs veh, ILF3 / RFU 11762660_at / Fold change /veh 11762660_at / RFU VCAN (11757783_s_at) / Fold change /veh VCAN (11757783_s_at) / RFU DDX43 (11728927_at) / Fold change /veh DDX43 (11728927_at) / RFU KRT8 (11758188_x_at) / Fold change /veh KRT8 (11758188_x_at) / RFU NKD1 (11759106_at) / Fold change /veh NKD1 (11759106_at) / RFU SRD5A1 (11742802_a_at) / Fold change /veh SRD5A1 (11742802_a_at) / RFU TPSAB1 /// TPSB2 (11721975_s_at) / Fold change /veh TPSAB1 /// TPSB2 (11721975_s_at) / RFU GSTM3 (11746129_a_at) / Fold change /veh GSTM3 (11746129_a_at) / RFU IL23R (11737362_x_at) / Fold change /veh IL23R (11737362_x_at) / RFU TMEM51 (11727254_a_at) / Fold change /veh TMEM51 (11727254_a_at) / RFU PIWIL2 (11732686_x_at) / Fold change /veh PIWIL2 (11732686_x_at) / RFU ORM1 (11744905_x_at) / Fold change /veh ORM1 (11744905_x_at) / RFU CCDC152 (11743942_at) / Fold change /veh CCDC152 (11743942_at) / RFU ECM1 (11717891_a_at) / Fold change /veh ECM1 (11717891_a_at) / RFU IL23R (11748794_a_at) / Fold change /veh IL23R (11748794_a_at) / RFU TNFAIP8L3 (11732012_x_at) / Fold change /veh TNFAIP8L3 (11732012_x_at) / RFU MBOAT4 (11741988_at) / Fold change /veh MBOAT4 (11741988_at) / RFU 11764193_at / Fold change /veh 11764193_at / RFU TMEM53 (11763286_at) / Fold change /veh TMEM53 (11763286_at) / RFU MAGEB2 (11727129_at) / Fold change /veh MAGEB2 (11727129_at) / RFU TMEM200A (11744735_a_at) / Fold change /veh TMEM200A (11744735_a_at) / RFU CCDC152 (11751479_a_at) / Fold change /veh CCDC152 (11751479_a_at) / RFU FAM211A (11726209_a_at) / Fold change /veh FAM211A (11726209_a_at) / RFU RGS16 (11746705_a_at) / Fold change /veh RGS16 (11746705_a_at) / RFU VCAN (11755009_s_at) / Fold change /veh VCAN (11755009_s_at) / RFU RHOB (11743442_s_at) / Fold change /veh RHOB (11743442_s_at) / RFU RGS16 (11720943_a_at) / Fold change /veh RGS16 (11720943_a_at) / RFU RGS16 (11720944_at) / Fold change /veh RGS16 (11720944_at) / RFU, VPS4B / Fold change vs veh, VPS4B / RFU, CREB1 / Fold change vs veh, CREB1 / RFU, DNAJC13 / Fold change vs veh, DNAJC13 / RFU, GNAQ / Fold change vs veh, GNAQ / RFU, CDK5R1 / Fold change vs veh, CDK5R1 / RFU, ZRANB3 / Fold change vs veh, ZRANB3 / RFU, CUL4A / Fold change vs veh, CUL4A / RFU, CCNY / Fold change vs veh, CCNY / RFU, UFL1 / Fold change vs veh, UFL1 / RFU, COG3 / Fold change vs veh, COG3 / RFU, DIAPH2 / Fold change vs veh, DIAPH2 / RFU, SKA2 / Fold change vs veh, SKA2 / RFU, AFF3 / Fold change vs veh, AFF3 / RFU, LMF1 / Fold change vs veh, LMF1 / RFU, IPO11 / Fold change vs veh, IPO11 / RFU, DFFB / Fold change vs veh, DFFB / RFU, FOXP1 / Fold change vs veh, FOXP1 / RFU, CARD8 / Fold change vs veh, CARD8 / RFU, STRN3 / Fold change vs veh, STRN3 / RFU, ADK / Fold change vs veh, ADK / RFU, RASSF2 / Fold change vs veh, RASSF2 / RFU, WIPF1 / Fold change vs veh, WIPF1 / RFU, LARP1B / Fold change vs veh, LARP1B / RFU, RASA1 / Fold change vs veh, RASA1 / RFU, RB1 / Fold change vs veh, RB1 / RFU, PPFIA1 / Fold change vs veh, PPFIA1 / RFU, MAT2A / Fold change vs veh, MAT2A / RFU, CCT5 / Fold change vs veh, CCT5 / RFU, WDR92 / Fold change vs veh, WDR92 / RFU, CUX1 / Fold change vs veh, CUX1 / RFU, TTC7A / Fold change vs veh, TTC7A / RFU, TMEM135 / Fold change vs veh, TMEM135 / RFU, DEPTOR / Fold change vs veh, DEPTOR / RFU, CPM / Fold change vs veh, CPM / RFU, DNAJB6 / Fold change vs veh, DNAJB6 / RFU, CACNA2D3 / Fold change vs veh, CACNA2D3 / RFU, DTX4 / Fold change vs veh, DTX4 / RFU, TFCP2 / Fold change vs veh, TFCP2 / RFU, GMCL1 /// GMCL1P1 / Fold change vs veh, GMCL1 /// GMCL1P1 / RFU, AEBP2 / Fold change vs veh, AEBP2 / RFU, SNHG1 /// SNORD22 /// SNORD25 /// SNORD26 /// SNORD27 /// SNORD28 /// SNORD29 /// SNORD31 / Fold change vs veh, SNHG1 /// SNORD22 /// SNORD25 /// SNORD26 /// SNORD27 /// SNORD28 /// SNORD29 /// SNORD31 / Fold change (Aza/veh), C12orf56 (ProbeSet 11735607_a_at) / Fold change (ACY-1035/veh), C12orf56 (ProbeSet 11735607_a_at) / Fold change (Aza/veh), FGFR1OP (ProbeSet 11751329_s_at) / Fold change (ACY-1035/veh), FGFR1OP (ProbeSet 11751329_s_at) / Fold change (Aza/veh), VPS36 (ProbeSet 11739960_a_at) / Fold change (ACY-1035/veh), VPS36 (ProbeSet 11739960_a_at) / RFU SYPL1 (11715823_x_at) / Fold change /veh SYPL1 (11715823_x_at) / RFU IGFBP7 (11715501_s_at) / Fold change /veh IGFBP7 (11715501_s_at) / RFU REEP3 (11722064_at) / Fold change /veh REEP3 (11722064_at) / RFU IGLL1 (11728026_x_at) / Fold change /veh IGLL1 (11728026_x_at): dose or concentration left out as unconfirmed
Conditions: ProbeSet 11755070_a_at; LIST D

Nc1ccc(-c2cccs2)cc1NC(=O)c1ccc2c(c1)cc(C1CC1)n2CCN1CCOCC1 [ACY-1035]
RFU, CARD8: 173.18 RFU
